Molecular target: T1, mAChR M4 (Homo sapiens, UniProt P08173)
T1 construct: expressed in transfected cells; host or cells: CHO-K1 cells stably transfected with M4 cDNA and chimeric G-protein Gqi5
T1 sequence (P08173 1-479): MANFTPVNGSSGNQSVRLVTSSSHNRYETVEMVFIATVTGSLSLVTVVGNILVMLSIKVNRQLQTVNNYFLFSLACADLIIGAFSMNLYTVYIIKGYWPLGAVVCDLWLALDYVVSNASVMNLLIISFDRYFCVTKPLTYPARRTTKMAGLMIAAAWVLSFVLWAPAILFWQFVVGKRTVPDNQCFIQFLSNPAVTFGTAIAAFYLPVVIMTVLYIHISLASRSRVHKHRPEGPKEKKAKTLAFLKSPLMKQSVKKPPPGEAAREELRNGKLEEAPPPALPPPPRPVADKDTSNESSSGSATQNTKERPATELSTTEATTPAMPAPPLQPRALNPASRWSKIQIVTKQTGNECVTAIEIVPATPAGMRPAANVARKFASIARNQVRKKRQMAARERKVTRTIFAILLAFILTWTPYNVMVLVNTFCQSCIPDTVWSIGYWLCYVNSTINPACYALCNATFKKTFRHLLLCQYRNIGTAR
Assay: mAChR M4 cell-based functional assay (calcium mobilization, potentiation of EC20 acetylcholine response)
Details: for Emax at 30 µM: % ACh maximum at 30 μM; for EC50: mAChR M4 cell-based functional assay, >10,000 estimated for low potency compounds without plateau, read-out: EC50

Emax at 30 µM	EC50	Compound
63%	0.014 µM	Cc1nnc2sc(C(=O)N[C@H]3CCN(c4ccccc4)C3)c(N)c2c1C [Example B193]
30%	4.7 µM	Cc1nnc2sc(C(=O)N3CCC4(CN(C(=O)OC(C)(C)C)C4)C3)c(N)c2c1C [Example B194]
62%	0.065 µM	Cc1nnc2sc(C(=O)NCc3ccc4[nH]ccc4c3)c(N)c2c1C [Example B195]
69%	0.061 µM	Cc1nnc2sc(C(=O)NCc3ccc4c(ccn4C)c3)c(N)c2c1C [Example B196]
35%	> 10 µM	Cc1nnc2sc(C(=O)NCC3CN(C(=O)OC(C)(C)C)C3)c(N)c2c1C [Example B197]
63%	0.025 µM	CCOc1ccc(CNC(=O)c2sc3nnc(C)c(C)c3c2N)cc1 [Example B198]
52%	> 10 µM	COCCOCCNC(=O)c1sc2nnc(C)c(C)c2c1N [Example B199]
74%	0.091 µM	Cc1nnc2sc(C(=O)NC3CCN(C(=O)c4cccs4)C3)c(N)c2c1C (stereo not shown) [Example B200]
56%	> 10 µM	Cc1nnc2sc(C(=O)N3CCC(NC(=O)N4CCOCC4)C3)c(N)c2c1C (stereo not shown) [Example B201]
69%	3.8 µM	Cc1nnc2sc(C(=O)N3CCC(NS(=O)(=O)c4cncn4C)C3)c(N)c2c1C (stereo not shown) [Example B202]
74%	0.1 µM	Cc1nnc2sc(C(=O)NC3CCN(C(=O)Oc4ccccc4)C3)c(N)c2c1C (stereo not shown) [Example B203]
64%	5 µM	Cc1nnc2sc(C(=O)N3CCC(NC(=O)c4ccncc4)C3)c(N)c2c1C (stereo not shown) [Example B204]
64%	0.031 µM	Cc1nnc2sc(C(=O)NC3CCN(C(=O)OCc4ccccc4)C3)c(N)c2c1C (stereo not shown) [Example B206]
64%	1.3 µM	Cc1nnc2sc(C(=O)N3CCC(NS(=O)(=O)c4ccccc4)C3)c(N)c2c1C (stereo not shown) [Example B207]
73%	2.1 µM	Cc1nnc2sc(C(=O)NC3CCN(C(=O)N4CCOCC4)C3)c(N)c2c1C (stereo not shown) [Example B208]
68%	0.31 µM	Cc1nnc2sc(C(=O)NC3CCN(S(=O)(=O)c4ccccc4OC(F)(F)F)C3)c(N)c2c1C (stereo not shown) [Example B209]
58%	> 10 µM	CCCOC(=O)NC1CCN(C(=O)c2sc3nnc(C)c(C)c3c2N)C1 (stereo not shown) [Example B210]
70%	1.4 µM	Cc1nnc2sc(C(=O)N3CCC(NS(=O)(=O)c4cccc(F)c4)C3)c(N)c2c1C (stereo not shown) [Example B211]
76%	0.87 µM	CCCCOc1ccc(C(=O)N2CCC(NC(=O)c3sc4nnc(C)c(C)c4c3N)C2)cc1 (stereo not shown) [Example B212]
65%	4.5 µM	COc1cccc(S(=O)(=O)NC2CCN(C(=O)c3sc4nnc(C)c(C)c4c3N)C2)c1 (stereo not shown) [Example B213]
73%	0.82 µM	COc1cccc(S(=O)(=O)N2CCC(NC(=O)c3sc4nnc(C)c(C)c4c3N)C2)c1 (stereo not shown) [Example B214]

Emax at 30 µM	EC50	Compound
75%	0.34 µM	Cc1ccc(S(=O)(=O)N2CCC(NC(=O)c3sc4nnc(C)c(C)c4c3N)C2)s1 (stereo not shown) [Example B215]
62%	> 10 µM	Cc1nnc2sc(C(=O)N3CCC(NC(=O)c4cccc(F)c4)C3)c(N)c2c1C (stereo not shown) [Example B216]
53%	1.1 µM	Cc1nnc2sc(C(=O)N3CCC(NC(=O)c4ccc(F)c(F)c4)C3)c(N)c2c1C (stereo not shown) [Example B217]
61%	5 µM	CCCCCC(=O)NC1CCN(C(=O)c2sc3nnc(C)c(C)c3c2N)C1 (stereo not shown) [Example B218]
77%	0.35 µM	Cc1nnc2sc(C(=O)NC3CCN(C(=O)c4ccc(F)cc4)C3)c(N)c2c1C (stereo not shown) [Example B219]
67%	0.83 µM	Cc1nnc2sc(C(=O)N3CCC(NC(=O)OCc4ccccc4)C3)c(N)c2c1C (stereo not shown) [Example B220]
72%	1.3 µM	Cc1nnc2sc(C(=O)NC3CCN(C(=O)CCc4ccccc4)C3)c(N)c2c1C (stereo not shown) [Example B221]
50%	> 10 µM	Cc1nnc2sc(C(=O)NC3CCN(C(=O)OC(C)C)C3)c(N)c2c1C (stereo not shown) [Example B222]
61%	2.4 µM	Cc1nnc2sc(C(=O)N3CCC(NS(=O)(=O)c4ccc(F)cc4)C3)c(N)c2c1C (stereo not shown) [Example B223]
77%	0.61 µM	CCCOC(=O)N1CCC(NC(=O)c2sc3nnc(C)c(C)c3c2N)C1 (stereo not shown) [Example B224]
62%	1.4 µM	Cc1ccc(C(=O)NC2CCN(C(=O)c3sc4nnc(C)c(C)c4c3N)C2)cc1 (stereo not shown) [Example B225]
84%	0.43 µM	Cc1nnc2sc(C(=O)NC3CCN(C(=O)C4CCCCC4)C3)c(N)c2c1C (stereo not shown) [Example B226]
76%	0.92 µM	Cc1nnc2sc(C(=O)NC3CCN(C(=O)Cc4cccs4)C3)c(N)c2c1C (stereo not shown) [Example B227]
81%	0.35 µM	Cc1nnc2sc(C(=O)NC3CCN(C(=O)c4ccc(F)cc4F)C3)c(N)c2c1C (stereo not shown) [Example B228]
68%	0.55 µM	Cc1nnc2sc(C(=O)NC3CCN(S(=O)(=O)c4ccccc4)C3)c(N)c2c1C (stereo not shown) [Example B229]
63%	3.4 µM	Cc1nnc2sc(C(=O)N3CCC(NC(=O)CC4CCCCC4)C3)c(N)c2c1C (stereo not shown) [Example B230]
78%	0.23 µM	COc1cccc(C(=O)N2CCC(NC(=O)c3sc4nnc(C)c(C)c4c3N)C2)c1 (stereo not shown) [Example B231]
77%	0.53 µM	CCCCCC(=O)N1CCC(NC(=O)c2sc3nnc(C)c(C)c3c2N)C1 (stereo not shown) [Example B232]
78%	0.099 µM	COCCOc1ccc(CNC(=O)c2sc3nnc(C)c(C)c3c2N)cc1 [Example B233]
50%	0.81 µM	Cc1nnc2sc(C(=O)N3CCC(NS(=O)(=O)CCCc4ccccc4)C3)c(N)c2c1C (stereo not shown) [Example B234]
72%	0.36 µM	Cc1nnc2sc(C(=O)NC3CCN(C(=O)Cc4ccccc4)C3)c(N)c2c1C (stereo not shown) [Example B235]

Emax at 30 µM	EC50	Compound
66%	5 µM	Cc1nnc2sc(C(=O)N3CCC(NC(=O)C4CC4)C3)c(N)c2c1C (stereo not shown) [Example B236]
62%	3.4 µM	Cc1nnc2sc(C(=O)N3CCC(NC(=O)C4CCCCC4)C3)c(N)c2c1C (stereo not shown) [Example B237]
68%	0.13 µM	Cc1nnc2sc(C(=O)NCc3ccc(N4CCCC4=O)cc3)c(N)c2c1C [Example B238]
84%	1.2 µM	Cc1nnc2sc(C(=O)NC3CCN(C(=O)C4CCC4)C3)c(N)c2c1C (stereo not shown) [Example B239]
53%	> 10 µM	Cc1nnc2sc(C(=O)N3CCC(NC(=O)c4ccccn4)C3)c(N)c2c1C (stereo not shown) [Example B240]
64%	0.86 µM	Cc1nnc2sc(C(=O)NC3CCN(C(=O)CC4CCCCC4)C3)c(N)c2c1C (stereo not shown) [Example B241]
79%	1.3 µM	Cc1nnc2sc(C(=O)NC3CCN(C(=O)C4CC4)C3)c(N)c2c1C (stereo not shown) [Example B242]
78%	0.59 µM	Cc1nnc2sc(C(=O)NC3CCN(C(=O)c4c(F)cccc4F)C3)c(N)c2c1C (stereo not shown) [Example B243]
79%	0.58 µM	Cc1ccc(S(=O)(=O)N2CCC(NC(=O)c3sc4nnc(C)c(C)c4c3N)C2)cc1 (stereo not shown) [Example B244]
73%	1.2 µM	Cc1nnc2sc(C(=O)NC3CCN(S(=O)(=O)c4ccc(OC(F)(F)F)cc4)C3)c(N)c2c1C (stereo not shown) [Example B245]
78%	4.6 µM	Cc1nnc2sc(C(=O)N3CCC(NC(=O)c4ccccc4)C3)c(N)c2c1C (stereo not shown) [Example B246]
73%	0.39 µM	Cc1nnc2sc(C(=O)NC3CCN(C(=O)C4CC4c4ccccc4)C3)c(N)c2c1C (stereo not shown) [Example B247]
81%	0.63 µM	Cc1nnc2sc(C(=O)NC34CC(C3)C4)c(N)c2c1C [Example B248]
48%	> 10 µM	Cc1nnc2sc(C(=O)N3CCC(NC(=O)CCc4ccccc4)C3)c(N)c2c1C (stereo not shown) [Example B249]
75%	0.19 µM	Cc1nnc2sc(C(=O)NCc3ccc4[nH]c(C)c(C)c4c3)c(N)c2c1C [Example B250]
79%	0.19 µM	Cc1nnc2sc(C(=O)NCc3ccc4c(cnn4C)c3)c(N)c2c1C [Example B251]
83%	1.7 µM	Cc1nnc2sc(C(=O)NC3CCN(S(C)(=O)=O)C3)c(N)c2c1C (stereo not shown) [Example B252]
71%	0.39 µM	Cc1nnc2sc(C(=O)NC3CCN(S(=O)(=O)c4cccc(F)c4)C3)c(N)c2c1C (stereo not shown) [Example B253]
65%	1.4 µM	Cc1nnc2sc(C(=O)N3CCC(NC(=O)C4CC4c4ccccc4)C3)c(N)c2c1C (stereo not shown) [Example B254]

Compound	Emax at 30 µM	EC50
Cc1nnc2sc(C(=O)N3CCC(NC(=O)Oc4ccccc4)C3)c(N)c2c1C (stereo not shown) [Example B205]	71%	0.57 µM
